Source: patent publication US9907859B2 (priority 2010, dated 2018)
In brackets after ≈: the same amount, converted by molar mass. Several values for one entry are separate records, joined by “and”; a condition that tells them apart may be missing. Equal values may be shown once. Read-outs that look alike come from different tables or passages of the source.

Experiments:
[1] = female, CD-1, mouse, in vivo; for Cmax: iv
[2] = both, New Zealand White, rabbit, in vivo, po, 100 mg/kg
[3] = rabbit, in vivo
[4] = both, cynomolgus monkey, in vivo; for AUCINF—obs / Cmax / CL / T1/2 / Tmax: iv
[5] = cynomolgus monkey, in vivo
vaccinia virus (VV) = conditions: in vitro, read-out: 50% effective concentration [EC50], inhibition of virus replication; cited from earlier work
cowpox virus (CV) = conditions: in vitro, read-out: 50% effective concentration [EC50], inhibition of virus replication; cited from earlier work
ectromelia virus (ECTV) = conditions: read-out: 50% effective concentration [EC50], inhibition of virus replication; cited from earlier work
monkeypox = conditions: in vitro, read-out: 50% effective concentration [EC50], inhibition of virus replication; cited from earlier work
camelpox = conditions: read-out: 50% effective concentration [EC50], inhibition of virus replication; cited from earlier work
variola viruses = conditions: in vitro, read-out: 50% effective concentration [EC50], inhibition of virus replication; cited from earlier work
physchem [6] = conditions: thermodynamic from solid
in vivo [7] = conditions: mouse, po
in vivo [8] = conditions: both, cynomolgus monkey, po; for AUC(0-inf): AUCINF—obs
physchem [9] = conditions: 37 °C, aqueous with cosolvent or surfactant or cyclodextrin, range of ST-246 solubilized by cyclodextrin
physchem [10] = conditions: 70 °C, aqueous with cosolvent or surfactant or cyclodextrin
physchem [11] = conditions: aqueous with cosolvent or surfactant or cyclodextrin
CV = conditions: in vivo; cited from earlier work

Question: What does the source list for O=C(NN1C(=O)C2C3C=CC(C4CC34)C2C1=O)c1ccc(C(F)(F)F)cc1 (stereo not drawn) [ST-246, 4-trifluoromethyl-N-(3,3a,4,4a,5,5a,6,6a-octahydro-1,3-dioxo-4,6-ethenocycloprop[f]isoindol-2(1H)-yl)-benzamide]?
Answer: Solubility of ST-246 (4 ° C.): 5.47 and 6.05; Solubility of ST-246 (25 ° C.): 9.21 and 10.59; Solubility of ST-246 (40 ° C.): 12.99 and 12.23; Solubility of ST-246 (60 ° C.): 17.41 and 16.21; average plasma concentration at the end of infusion ([1]; 75 mg/kg): 238, 333 ng/mL; Cmax ([1]; 10 mg/kg): 64000 ng/mL; Cmax ([1]; 30 mg/kg): 147333 ng/mL; Cmax ([1]; 75 mg/kg): 238000 ng/mL; AUC0-24 hr [2]: 19.8 ± 16.6 µg·h/mL; time to full recovery ([3]; both, New Zealand White, iv, 60 mg/kg): 30 to 60 min; tolerability [3]: well-tolerated; tolerability ([3]; 3 mg/kg): well-tolerated; tolerability ([3]; iv, 1 mg/kg): well tolerated; clinical signs ([3]; iv, 60 mg/kg): lethargy, labored breathing and narcosis; Cmax higher for 4 hour vs 6 hour infusions [4]: approximately 50%; exposure higher for 4 hour vs 6 hour infusions [4]: approximately 20%; terminal elimination half-life [4]: 9.1 h; AUCINF—obs ([4]; 1 mg/kg): 1.94 ± 0.46 µg·h/mL; Cmax ([4]; 1 mg/kg): 384 ± 112 ng/mL; AUCINF—obs ([4]; 3 mg/kg): 5.83 ± 0.87 µg·h/mL; Cmax ([4]; 3 mg/kg): 1050 ± 190 ng/mL; CL ([4]; 10 mg/kg): 7.15 ± 1.23 mL/min/kg; T1/2 ([4]; 10 mg/kg): 8.9 ± 2.5 h; AUCINF—obs ([4]; 15 mg/kg): 48.7 ± 7.5 µg·h/mL; Cmax ([4]; 15 mg/kg): 9080 ± 950 ng/mL; AUCINF—obs ([4]; 20 mg/kg): 47.9 ± 6.1 µg·h/mL; CL ([4]; 20 mg/kg): 7.22 ± 0.883 mL/min/kg; Cmax ([4]; 20 mg/kg): 7480 ± 400 ng/mL; Tmax ([4]; 20 mg/kg): 6 h; AUCINF—obs ([4]; 30 mg/kg): 87.2 ± 14.6 µg·h/mL; CL ([4]; 30 mg/kg): 6.03 ± 1.02 mL/min/kg; Cmax ([4]; 30 mg/kg): 13900 ± 1300 ng/mL; T1/2 ([4]; 30 mg/kg): 6.9 ± 0.8 h; Tmax ([4]; 30 mg/kg): 6 h; onset of tremors after end of infusion ([5]; both, 30 mg/kg): ≤ 13 min; resolution of tremors after end of infusion ([5]; both, 30 mg/kg): approximately 2 hours; clinical signs [5]: no clinical signs were observed; clinical signs ([5]; 20 mg/kg): Tremors were not observed; EC50 (vaccinia virus (VV)): ≤ 70 nM; EC50 (cowpox virus (CV)): ≤ 70 nM; EC50 (ectromelia virus (ECTV)): ≤ 70 nM; EC50 (monkeypox): ≤ 70 nM; EC50 (camelpox): ≤ 70 nM; EC50 (variola viruses): ≤ 70 nM; solubility (physchem [6]; oil or lipid, absolute solubility of ST-246 in oils): < 5000 µg/mL; solubility (physchem [6]; pH 6.8, aqueous buffer, ST-246 Solubility): < 100 µg/mL; solubility (physchem [6]; simulated gastric fluid, ST-246 Solubility): < 100 µg/mL; solubility (physchem [6]; water, ST-246 Solubility): < 100 µg/mL; half-life (in vivo [7]; female, BALB/c): 2.2 to 4.5 h; CL/F (in vivo [7]; female, BALB/c, 30 mg/kg): 1.7 mL/min/kg; half-life (in vivo [7]; female, BALB/c, 30 mg/kg): 2.4 h; AUC(0-t) (in vivo [7]; female, BALB/c, 30 mg/kg, AUC0-24): 292 µg·h/mL; AUC(0-t) (in vivo [7]; female, BALB/c, 30 mg/kg, AUC0-24 hr): 292 µg·h/mL; Cmax (in vivo [7]; female, BALB/c, 30 mg/kg): 37500 ng/mL; CL/F (in vivo [7]; female, BALB/c, 100 mg/kg): 3.65 mL/min/kg; half-life (in vivo [7]; female, BALB/c, 100 mg/kg): 2.2 h; AUC(0-t) (in vivo [7]; female, BALB/c, 100 mg/kg, AUC0-24 hr): 456 µg·h/mL; Cmax (in vivo [7]; female, BALB/c, 100 mg/kg): 43800 ng/mL; CL/F (in vivo [7]; female, BALB/c, 300 mg/kg): 7.3 mL/min/kg; half-life (in vivo [7]; female, BALB/c, 300 mg/kg): 4.1 h; AUC(0-t) (in vivo [7]; female, BALB/c, 300 mg/kg, AUC0-24 hr): 669 µg·h/mL; Cmax (in vivo [7]; female, BALB/c, 300 mg/kg): 64000 ng/mL; CL/F (in vivo [7]; female, BALB/c, 1000 mg/kg): 18.9 mL/min/kg; half-life (in vivo [7]; female, BALB/c, 1000 mg/kg): 4.5 h; AUC(0-t) (in vivo [7]; female, BALB/c, 1000 mg/kg, AUC0-24 hr): 852 µg·h/mL; Cmax (in vivo [7]; female, BALB/c, 1000 mg/kg): 66000 ng/mL; AUC(0-t) (in vivo [7]; female, 100 mg/kg, AUC0-24): 456 µg·h/mL; AUC(0-t) (in vivo [7]; female, 300 mg/kg, AUC0-24): 669 µg·h/mL; Cmax (in vivo [7]; female, 300 mg/kg): 64000 ng/mL; AUC(0-t) (in vivo [7]; female, 500 mg/kg, AUC0-24): 515 µg·h/mL; Cmax (in vivo [7]; female, 500 mg/kg): 56600 ng/mL; AUC(0-t) (in vivo [7]; female, 600 mg/kg, AUC0-24): 854 µg·h/mL; Cmax (in vivo [7]; female, 600 mg/kg): 95300 ng/mL; Cmax (in vivo [7]; female, 1000 mg/kg): 66300 ng/mL; AUC(0-t) (in vivo [7]; female, 2000 mg/kg, AUC0-24): 607 µg·h/mL; Cmax (in vivo [7]; female, 2000 mg/kg): 69900 ng/mL; AUC(0-t) (in vivo [7]; male, BALB/c, 30 mg/kg, AUC0-24): 241 µg·h/mL; Cmax (in vivo [7]; male, BALB/c, 30 mg/kg): 30400 ng/mL; Cmax (in vivo [7]; male, BALB/c, 100 mg/kg): 38400 ng/mL; AUC(0-t) (in vivo [7]; male, 100 mg/kg, AUC0-24): 343 µg·h/mL; AUC(0-t) (in vivo [7]; male, 300 mg/kg, AUC0-24): 484 µg·h/mL; Cmax (in vivo [7]; male, 300 mg/kg): 48400 ng/mL; AUC(0-t) (in vivo [7]; male, 500 mg/kg, AUC0-24): 413 µg·h/mL; Cmax (in vivo [7]; male, 500 mg/kg): 36600 ng/mL; AUC(0-t) (in vivo [7]; male, 600 mg/kg, AUC0-24): 765 µg·h/mL; Cmax (in vivo [7]; male, 600 mg/kg): 82800 ng/mL; Cmax (in vivo [7]; male, 1000 mg/kg): 61100 ng/mL; AUC(0-t) (in vivo [7]; male, 2000 mg/kg, AUC0-24): 508 µg·h/mL; Cmax (in vivo [7]; male, 2000 mg/kg): 50900 ng/mL; CL/F (in vivo [8]; 0.3 mg/kg): 15.3 mL/min/kg; Tmax (in vivo [8]; 0.3 mg/kg): 2.5 h; half-life (in vivo [8]; 0.3 mg/kg): 4 ± 1.3 h; AUC(0-inf) (in vivo [8]; 0.3 mg/kg): 0.38 ± 0.149 µg·h/mL; Cmax (in vivo [8]; 0.3 mg/kg): 53.8 ± 27.5 ng/mL; AUC(0-t) (in vivo [8]; 3 mg/kg): 3.86 ± 0.862 µg·h/mL; CL/F (in vivo [8]; 3 mg/kg): 11.2 mL/min/kg; Tmax (in vivo [8]; 3 mg/kg): 3.3 h; half-life (in vivo [8]; 3 mg/kg): 9.9 ± 6 h; AUC(0-inf) (in vivo [8]; 3 mg/kg): 4.53 ± 0.49 µg·h/mL; Cmax (in vivo [8]; 3 mg/kg): 496 ± 145 ng/mL; AUC(0-t) (in vivo [8]; 10 mg/kg): 10.3 ± 3.06 µg·h/mL; CL/F (in vivo [8]; 10 mg/kg): 15.3 mL/min/kg; Tmax (in vivo [8]; 10 mg/kg): 3.8 h; half-life (in vivo [8]; 10 mg/kg): 7 ± 0.9 h; AUC(0-inf) (in vivo [8]; 10 mg/kg): 11.8 ± 3.67 µg·h/mL; Cmax (in vivo [8]; 10 mg/kg): 1080 ± 279 ng/mL; AUC(0-t) (in vivo [8]; 20 mg/kg): 13.4 ± 8.02 µg·h/mL; CL/F (in vivo [8]; 20 mg/kg): 20.1 mL/min/kg; Tmax (in vivo [8]; 20 mg/kg): 3.2 h; half-life (in vivo [8]; 20 mg/kg): 7.2 ± 2.3 h; AUC(0-inf) (in vivo [8]; 20 mg/kg): 15.5 ± 9.15 µg·h/mL; Cmax (in vivo [8]; 20 mg/kg): 1480 ± 864 ng/mL; AUC(0-t) (in vivo [8]; 30 mg/kg): 20.5 ± 8.05 µg·h/mL; CL/F (in vivo [8]; 30 mg/kg): 16.5 mL/min/kg; Tmax (in vivo [8]; 30 mg/kg): 3.6 h; half-life (in vivo [8]; 30 mg/kg): 17.7 ± 13.8 h; AUC(0-inf) (in vivo [8]; 30 mg/kg): 31.9 ± 7.36 µg·h/mL; Cmax (in vivo [8]; 30 mg/kg): 1990 ± 873 ng/mL; solubility (physchem [9]): 1500 to 11000 µg/mL (≈ 3.99 to 29.2 mM); solubility (physchem [10]): 21200 µg/mL (≈ 56.4 mM); solubility (physchem [11]; 4 °C, Solubility of ST-246, 4 ° C.): 6290 µg/mL (≈ 16.7 mM); solubility (physchem [11]; 25 °C, Solubility of ST-246, 25 ° C.): 7570 µg/mL (≈ 20.1 mM); solubility (physchem [11]; 40 °C, Solubility of ST-246, 40 ° C.): 11200 µg/mL (≈ 29.7 mM); solubility (physchem [11]; 60 °C, Solubility of ST-246, 60 ° C.): 16200 µg/mL (≈ 43.2 mM); preventing or reducing mortality (CV): highly effective in preventing or reducing mortality; toxicity in animal model (CV): nontoxic
